Assay results taken from ChEMBL document CHEMBL4359891, “Synthesis of polyfluoroalkyl sp2-iminosugar glycolipids and evaluation of their immunomodulatory properties towards anti-tumor, anti-leishmanial and anti-inflammatory therapies” (Eur J Med Chem, 2019).
Activity calls are given as the source filed them. The calls are words filed in the database; no cut-off is given here.

Key:
[1] = test system: HBL-100; experiment: Antiproliferative activity against human HBL100 cells assessed as growth inhibition after 48 hrs by SRB assay; assay type: functional; settings: HBL-100, 48 h
[2] = Critical aggregation concentration of compound by spectrofluorophotometric method; assay type: physicochemical
[3] = test system: WiDr; experiment: Antiproliferative activity against human WiDr cells assessed as growth inhibition after 48 hrs by SRB assay; assay type: functional
[4] = test system: Leishmania donovani; experiment: Antileishmanial activity against intracellular amastigote stage of Leishmania donovani fused with LUC infected in human THP1 cells assessed as parasite growth inhibition after 72 hrs post infection by luciferase based assay; assay type: functional, organism-based; settings: THP-1, 72 h
[5] = test system: T47D; experiment: Antiproliferative activity against human T47D cells assessed as growth inhibition after 48 hrs by SRB assay; assay type: functional
[6] = test system: SW1573; experiment: Antiproliferative activity against human SW1573 cells assessed as growth inhibition after 48 hrs by SRB assay; assay type: functional; settings: SW1573, 48 h
[7] = test system: A549; experiment: Antiproliferative activity against human A549 cells assessed as growth inhibition after 48 hrs by SRB assay; assay type: functional; settings: A549, 48 h
[8] = test system: THP-1; experiment: Cytotoxicity against human THP1 cells assessed as reduction in cell viability after 72 hrs by MTT assay; assay type: cell-based; settings: THP-1, 72 h
[9] = test system: HeLa; experiment: Antiproliferative activity against human HeLa cells assessed as growth inhibition after 48 hrs by SRB assay; assay type: functional
[10] = target: Mitogen-activated protein kinase 14 (Mus musculus) (UniProt P47811); experiment: Activation of p38 alpha MAPK in mouse BV2 cells assessed as p38 phosphorylation at 1 uM incubated for 15 to 60 mins by Western blot analysis; assay type: cell-based
[11] = target: Mitogen-activated protein kinase 14 (Mus musculus) (UniProt P47811); experiment: Activation of p38 alpha MAPK in mouse BV2 cells assessed as p38 phosphorylation at 1 uM by Western blot analysis; assay type: cell-based; settings: TDE = time-dependent effect
[12] = test system: BV-2; experiment: Antiinflammatory activity against mouse BV2 cells assessed as reduction in LPS-induced iNOS protein expression at 1 uM by Western blot analysis; assay type: functional, cell-based
[13] = test system: BV-2; experiment: Cytotoxicity against mouse BV2 cells assessed as reduction in cell viability up to 10 uM by crystal violet staining based assay
[14] = test system: BV-2; experiment: Antiinflammatory activity against mouse BV2 cells assessed as reduction in LPS-induced nitrite level at 1 to 10 uM by Griess assay; assay type: functional, cell-based
[15] = test system: BV-2; experiment: Antiinflammatory activity against mouse BV2 cells assessed as reduction in LPS-induced iNOS protein expression at 10 uM by Western blot analysis; assay type: functional, cell-based
[16] = target: Mitogen-activated protein kinase 14 (Mus musculus) (UniProt P47811); experiment: Activation of p38 alpha MAPK in mouse BV2 cells assessed as p38 phosphorylation at 10 uM by Western blot analysis; assay type: cell-based; settings: TDE = time-dependent effect

Mitogen-activated protein kinase 14 (Mus musculus), sequence (P47811 whole entry): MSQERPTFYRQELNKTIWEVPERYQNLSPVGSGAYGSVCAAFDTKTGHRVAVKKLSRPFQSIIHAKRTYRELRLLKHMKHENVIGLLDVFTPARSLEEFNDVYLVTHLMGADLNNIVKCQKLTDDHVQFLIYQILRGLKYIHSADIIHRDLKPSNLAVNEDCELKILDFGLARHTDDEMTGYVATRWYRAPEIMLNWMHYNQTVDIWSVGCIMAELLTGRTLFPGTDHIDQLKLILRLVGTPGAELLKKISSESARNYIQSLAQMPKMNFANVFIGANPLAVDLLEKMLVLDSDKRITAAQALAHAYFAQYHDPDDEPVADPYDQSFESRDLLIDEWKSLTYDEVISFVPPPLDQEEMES

CAC [2]	GI50 [5]	GI50 [6]	GI50 [7]	GI50 [9]	Activity [10]	Activity [11]	Activity [16]	SMILES	GI50 [1]	GI50 [3]	EC50 [4]	EC50 [8]	Activity [12]	Activity [13]	Activity [14]	Activity [15]
118 µM	96 µM	> 100 µM	76 µM	45 µM	–	–	–	O=C(CCC(F)(F)C(F)(F)C(F)(F)C(F)(F)F)NCCCCCCCCCN[C@@H]1[C@H](O)[C@@H](O)[C@@H](O)[C@H]2COC(=O)N21	> 100 µM	> 100 µM	> 40 µM	> 200 µM	–	–	–	–
77.9 µM	> 100 µM	> 100 µM	> 100 µM	> 100 µM	–	–	–	O=C(CCC(F)(F)C(F)(F)C(F)(F)C(F)(F)F)NCCCCCCCCCN[C@@H]1[C@H](O)[C@@H](O)[C@H](O)[C@H]2COC(=O)N21	> 100 µM	> 100 µM	> 40 µM	> 200 µM	–	–	–	–

The next lines start with the molecule.

SMILES	CAC [2]	GI50 [5]	GI50 [6]	GI50 [7]	GI50 [9]	Activity [10]	Activity [11]	Activity [16]	GI50 [1]	GI50 [3]	EC50 [4]	EC50 [8]	Activity [12]	Activity [13]	Activity [14]	Activity [15]
CCCCCCCCCCCCCCCCOP(=O)([O-])OCC[N+](C)(C)C [MILTEFOSINE]	–	–	–	–	–	–	–	–	–	–	0.44 µM	–	–	–	–	–
CCCCCCCCCCCCS(=O)(=O)[C@@H]1[C@H](O)[C@@H](O)[C@@H](O)[C@H]2COC(=O)N21	–	–	–	–	–	Active	–	–	–	–	–	–	–	–	–	–
O=C(CCC(F)(F)C(F)(F)C(F)(F)C(F)(F)C(F)(F)C(F)(F)F)NCCCCCCCCCN[C@@H]1[C@H](O)[C@@H](O)[C@@H](O)[C@H]2COC(=O)N21	14 µM	15 µM	14 µM	17 µM	10 µM	–	Tde	–	16 µM	17 µM	27.2 µM	56.6 µM	Active	Non-Toxic	Active	–
O=C(CCC(F)(F)C(F)(F)C(F)(F)C(F)(F)C(F)(F)C(F)(F)F)NCCCCCCCCCN[C@@H]1[C@H](O)[C@@H](O)[C@H](O)[C@H]2COC(=O)N21	22 µM	11 µM	14 µM	12 µM	12 µM	–	–	Tde	16 µM	13 µM	24.6 µM	65 µM	–	Non-Toxic	Active	Active
O=C(CCC(F)(F)C(F)(F)C(F)(F)C(F)(F)C(F)(F)C(F)(F)C(F)(F)C(F)(F)F)NCCCCCCCCCN[C@@H]1[C@H](O)[C@@H](O)[C@@H](O)[C@H]2COC(=O)N21	13 µM	> 100 µM	> 100 µM	> 100 µM	> 100 µM	–	–	–	> 100 µM	> 100 µM	22.9 µM	124 µM	–	–	–	–
O=C(CCC(F)(F)C(F)(F)C(F)(F)C(F)(F)C(F)(F)C(F)(F)C(F)(F)C(F)(F)F)NCCCCCCCCCN[C@@H]1[C@H](O)[C@@H](O)[C@H](O)[C@H]2COC(=O)N21	6.9 µM	> 100 µM	> 100 µM	> 100 µM	> 100 µM	–	–	–	> 100 µM	> 100 µM	30 µM	152 µM	–	–	–	–
